For 23 compounds, IC50 and EC50 results are on record in patent US9714247B2, “Multiple kinase pathway inhibitors” (Mannkind Corporation, priority 2012, dated 2017).

The target in assay [1] is T1, Lyn (Homo sapiens (Human), UniProt P07948). Kind of assay: biochemical.
For the next assay, the system named is DoHH2. Kind of assay: CellTiter-Glo proliferation/viability assay. It is filed as cell-based, human. Particulars: Homo sapiens, DOHH-2; 48 hrs; read-out: DoHH2 EC50.
The next assay deals with Ramos. Kind of assay: CellTiter-Glo proliferation/viability assay. The class given is cell-based, human. The settings on record: read-out: Ramos EC50.
In a further assay the target is Src (Homo sapiens (Human), UniProt P12931). Kind of assay: biochemical.
The target in another assay is BTK (Homo sapiens (Human), UniProt Q06187).
For assay [2], the target named is T1, Lyn. Particulars: read-out: Lyn IC50.

Read-outs that look alike come from different tables or passages of the source.

T1 sequence (P07948 whole entry): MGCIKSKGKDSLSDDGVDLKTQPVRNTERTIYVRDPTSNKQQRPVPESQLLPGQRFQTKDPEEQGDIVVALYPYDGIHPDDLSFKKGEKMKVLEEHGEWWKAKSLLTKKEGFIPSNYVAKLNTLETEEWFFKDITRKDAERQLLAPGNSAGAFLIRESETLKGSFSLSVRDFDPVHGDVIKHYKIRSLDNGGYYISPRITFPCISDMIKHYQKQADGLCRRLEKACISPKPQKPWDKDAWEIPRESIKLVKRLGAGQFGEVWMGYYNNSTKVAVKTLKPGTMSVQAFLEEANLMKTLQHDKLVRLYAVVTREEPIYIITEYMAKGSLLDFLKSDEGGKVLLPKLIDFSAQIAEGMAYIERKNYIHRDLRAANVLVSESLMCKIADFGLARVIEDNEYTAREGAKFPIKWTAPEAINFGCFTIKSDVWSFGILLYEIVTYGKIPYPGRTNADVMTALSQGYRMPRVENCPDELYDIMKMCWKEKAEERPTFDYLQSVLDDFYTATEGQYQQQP
Sequence of BTK (Q06187 whole entry): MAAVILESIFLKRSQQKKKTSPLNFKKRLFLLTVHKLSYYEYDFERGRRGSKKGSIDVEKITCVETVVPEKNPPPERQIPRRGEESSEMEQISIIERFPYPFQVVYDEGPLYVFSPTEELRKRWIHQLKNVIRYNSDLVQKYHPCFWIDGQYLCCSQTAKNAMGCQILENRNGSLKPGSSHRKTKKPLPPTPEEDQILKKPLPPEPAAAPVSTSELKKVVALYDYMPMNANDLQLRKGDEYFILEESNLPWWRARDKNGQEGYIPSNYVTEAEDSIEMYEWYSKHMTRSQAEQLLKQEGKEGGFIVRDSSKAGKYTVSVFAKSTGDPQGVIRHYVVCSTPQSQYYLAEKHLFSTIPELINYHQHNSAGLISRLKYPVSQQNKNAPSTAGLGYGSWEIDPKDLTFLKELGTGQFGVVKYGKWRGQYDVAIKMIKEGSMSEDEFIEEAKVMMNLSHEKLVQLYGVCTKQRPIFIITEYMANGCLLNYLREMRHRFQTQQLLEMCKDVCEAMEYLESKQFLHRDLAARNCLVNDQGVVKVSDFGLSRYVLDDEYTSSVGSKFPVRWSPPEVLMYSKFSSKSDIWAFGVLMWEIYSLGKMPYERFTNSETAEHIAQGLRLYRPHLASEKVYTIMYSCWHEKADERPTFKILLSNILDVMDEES
Sequence of Src (P12931 whole entry, looked up): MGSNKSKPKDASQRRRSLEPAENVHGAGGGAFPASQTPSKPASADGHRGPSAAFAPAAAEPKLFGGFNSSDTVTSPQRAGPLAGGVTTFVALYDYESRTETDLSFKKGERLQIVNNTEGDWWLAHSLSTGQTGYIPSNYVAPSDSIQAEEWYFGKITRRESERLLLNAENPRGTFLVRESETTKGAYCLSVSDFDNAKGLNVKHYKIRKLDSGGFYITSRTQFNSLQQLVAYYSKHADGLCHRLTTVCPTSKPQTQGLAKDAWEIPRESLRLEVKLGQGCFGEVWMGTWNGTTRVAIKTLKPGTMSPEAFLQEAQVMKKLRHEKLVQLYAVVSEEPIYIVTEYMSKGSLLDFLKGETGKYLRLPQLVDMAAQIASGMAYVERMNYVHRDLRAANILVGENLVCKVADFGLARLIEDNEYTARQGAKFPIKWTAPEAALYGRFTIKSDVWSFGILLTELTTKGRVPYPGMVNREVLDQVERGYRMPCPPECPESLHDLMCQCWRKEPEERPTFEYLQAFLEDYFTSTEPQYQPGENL

With `O=c1c(-c2c(F)cccc2F)cc2cnc(Nc3ccc(F)cn3)cc2n1C1CCOC1` (single isomer, unassigned) [Compound 141, (S or R)-3-(2,6-difluorophenyl)-7-((5-fluoropyridin-2-yl)amino)-1-(tetrahydrofuran-3-yl)-1,6-naphthyridin-2(1H)-one], the half-maximal inhibitory concentration (IC50) – broadly, the concentration at which inhibition is half-maximal – at Lyn [1] (Lyn IC50) is 0.1 to 1 µM; against Src, under 0.1 µM. The EC50 (as a rule, the concentration at which the effect is half-maximal) was under 1 µM in the assay with DoHH2 and 1 to 10 µM in the assay on Ramos (Homo sapiens, Ramos, 48 h).
Regarding `CCN(CC)CCOc1ccc(Nc2cc3c(cn2)cc(-c2c(F)cccc2F)c(=O)n3C2CCOC2)nc1` (single isomer, unassigned) [Compound 143, (S or R)-7-((5-(2-(diethylamino)ethoxy)pyridin-2-yl)amino)-3-(2,6-difluorophenyl)-1-(tetrahydrofuran-3-yl)-1,6-naphthyridin-2(1H)-one], the IC50 at Lyn [1] (Lyn IC50), against BTK and against Src was under 0.1 µM each time. Besides, the half-maximal effective concentration (EC50) was under 1 µM with DoHH2 and over 10 µM with Ramos (48 hrs).
As to `CCN(CC)CCOc1ccc(Nc2cc3c(cn2)cc(-c2c(Cl)cccc2Cl)c(=O)n3C2CCOC2)nc1` (single isomer, unassigned) [Compound 145, (S or R)-3-(2,6-dichlorophenyl)-7-((5-(2-(diethylamino)ethoxy)pyridin-2-yl)amino)-1-(tetrahydrofuran-3-yl)-1,6-naphthyridin-2(1H)-one], the IC50 against Lyn [1] (Lyn IC50), at BTK and on Src was under 0.1 µM throughout. Moreover, the half-maximal effective concentration (EC50) with DoHH2 is under 1 µM; with Ramos (Homo sapiens, Ramos, 48 h), 1 to 10 µM.
On to `O=c1c(-c2c(Cl)cccc2Cl)cc2cnc(Nc3ccc(F)cn3)cc2n1C1CCOC1` (single isomer, unassigned) [Compound 147, (S or R)-3-(2,6-dichlorophenyl)-7-((5-fluoropyridin-2-yl)amino)-1-(tetrahydrofuran-3-yl)-1,6-naphthyridin-2(1H)-one], for which the IC50 on Lyn [1], on BTK and on Src was under 0.1 µM in each case. In addition, the EC50 was under 1 µM in the assay with DoHH2 and over 10 µM with Ramos (Homo sapiens, Ramos, 48 h).
Consider `CCn1c(=O)c(-c2ccccc2)cc2cnc(Nc3cc(N4CCN(CCO)CC4)nc(C)n3)cc21` [Compound 5, 1-Ethyl-7-{6-[4-(2-hydroxy-ethyl)-piperazin-1-yl]-2-methyl-pyrimidin-4-ylamino}-3-phenyl-1H-[1,6]naphthyridin-2-one], for which the IC50 is 0.1 to 1 µM on Lyn [1], 0.1 to 1 µM on BTK and 1 to 5 µM at Src. Moreover, the concentration giving a half-maximal response (EC50) in the assay on DoHH2 was 1 to 10 µM; with Ramos (Homo sapiens, Ramos, 48 h), over 10 µM.
`CCn1c(=O)c(-c2ccccc2)cc2cnc(Nc3cnccn3)cc21` [Compound 6, 1-Ethyl-3-phenyl-7-(pyrazin-2-ylamino)-1H-[1,6]naphthyridin-2-one]: the IC50 on Lyn [1] lay within 0.1 to 1 µM; on BTK it was 1 to 5 µM; at Src, 1 to 5 µM. The EC50 in the assay with DoHH2 was over 10 µM; in the assay with Ramos (Homo sapiens, Ramos, 48 hrs) it was over 10 µM.
As for `CCn1c(=O)c(-c2ccccc2)cc2cnc(Nc3ccccn3)cc21` [Compound 7, 1-Ethyl-3-phenyl-7-(pyridin-2-ylamino)-1H-[1,6]naphthyridin-2-one], the IC50 was in the range of 1 to 5 µM at Lyn [1], 0.1 to 1 µM at BTK and 0.1 to 1 µM on Src. Further, the concentration for a half-maximal effect (EC50) with DoHH2 is 1 to 10 µM; in the assay with Ramos (Homo sapiens, Ramos, 48 h), over 10 µM.
For `CCN(CC)CCOc1ccc(Nc2cc3[nH]c(=O)c(-c4ccccc4)cc3cn2)nc1` [Compound 14, 7-[5-(2-Diethylamino-ethoxy)-pyridin-2-ylamino]-3-phenyl-1H-[1,6]naphthyridin-2-one], the IC50 was 0.1 to 1 µM against Lyn [1], under 0.1 µM at BTK (read-out: BTK IC50) and 0.1 to 1 µM on Src. Moreover, the EC50 is 1 to 10 µM with DoHH2 and over 10 µM with Ramos (Homo sapiens, Ramos, 48 hrs).
In the case of `CCn1c(=O)c(C2CC2)cc2cnc(Nc3ccc(C)cn3)cc21` [Compound 30, 3-Cyclopropyl-1-ethyl-7-(5-methyl-pyridin-2-ylamino)-1H-[1,6]naphthaayridin-2-one], the half-maximal inhibitory concentration (IC50) is 1 to 5 µM against Lyn [1], over 5 µM at BTK (read-out: BTK IC50) and 0.1 to 1 µM against Src. Further, the half-maximal effective concentration (EC50) fell in the range of 1 to 10 µM with DoHH2 and 1 to 10 µM in the assay on Ramos (Homo sapiens, Ramos, 48 h).
Take `CCn1c(=O)c(-c2ccccc2)cc2cnc(Nc3ccc(N4CCOCC4)cn3)cc21` [Compound 44, 1-Ethyl-7-(5-morpholin-4-yl-pyridin-2-ylamino)-3-phenyl-1H-[1,6]naphthyridin-2-one]: the half-maximal inhibitory concentration (IC50) is 0.1 to 1 µM against Lyn [1], over 5 µM on BTK (read-out: BTK IC50) and 0.1 to 1 µM against Src. Also, the concentration for a half-maximal effect (EC50) in the assay on DoHH2 is under 1 µM; with Ramos (Homo sapiens, Ramos, 48 hrs), 1 to 10 µM.
On to `CCn1c(=O)c(-c2ccccc2)cc2cnc(Nc3ccc(OCCN(C)C)cn3)cc21` [Compound 48, 7-[5-(2-Dimethylamino-ethoxy)-pyridin-2-ylamino]-1-ethyl-3-phenyl-1H-[1,6]naphthyridin-2-one], for which the IC50 on Lyn [1] lay in the range of 0.1 to 1 µM; against BTK, 1 to 5 µM; against Src, 1 to 5 µM. Moreover, the concentration giving a half-maximal response (EC50) in the assay on DoHH2 was 1 to 10 µM; in the assay with Ramos (Homo sapiens, Ramos, 48 hrs) it was over 10 µM.
With `CCN(CC)CCOc1ccc(Nc2cc3[nH]c(=O)c(C(C)C)cc3cn2)nc1` [Compound 49, 7-(5-(2-(diethylamino)ethoxy)pyridin-2-ylamino)-3-isopropyl-1,6-naphthyridin-2(1H)-one], the half-inhibitory concentration (IC50) is 0.1 to 1 µM at Lyn [1], 1 to 5 µM against BTK and 0.1 to 1 µM against Src. Further, the EC50 in the assay on DoHH2 is 1 to 10 µM; in the assay with Ramos (Homo sapiens, Ramos, 48 h) it was over 10 µM.
On to `CCN(CC)CCOc1ccc(Nc2cc3c(cn2)cc(C(C)C)c(=O)n3CC)nc1` [Compound 50, 7-[5-(2-Diethylamino-ethoxy)-pyridin-2-ylamino]-1-ethyl-3-isopropyl-1H-[1,6]naphthyridin-2-one], for which the IC50 against Lyn [1] and against Src was 0.1 to 1 µM throughout. Further, the EC50 in the assay on DoHH2 is 1 to 10 µM; with Ramos (Homo sapiens, Ramos, 48 hrs), over 10 µM.
In the case of `CCn1c(=O)c(-c2ccccc2)cc2cnc(Nc3ccc(OC)cn3)cc21` [Compound 51, 1-Ethyl-7-(5-methoxy-pyridin-2-ylamino)-3-phenyl-1H-[1,6]naphthayridin-2-one], the IC50 fell in the range of 0.1 to 1 µM against Lyn [1], 1 to 5 µM at BTK and 0.1 to 1 µM against Src. The EC50 is 1 to 10 µM in the assay with DoHH2 and over 10 µM with Ramos (Homo sapiens, Ramos, 48 hrs).
As for `CCn1c(=O)c(C#CCO)cc2cnc(Nc3ccc(C)cn3)cc21` [Compound 53], the half-maximal inhibitory concentration (IC50) at Lyn [1] was 1 to 5 µM; on BTK (read-out: BTK IC50) it was over 5 µM; against Src, 0.1 to 1 µM. Besides, the EC50 was 1 to 10 µM in the assay on DoHH2 and 1 to 10 µM in the assay with Ramos (Homo sapiens, Ramos, 48 hrs).
Consider `CCn1c(=O)c(C#CC(C)(C)O)cc2cnc(Nc3ccc(C)cn3)cc21` [Compound 54], for which the figures for the IC50 against Lyn [1], on BTK and against Src were 0.1 to 1 µM, 1 to 5 µM and 0.1 to 1 µM, respectively. Further, the EC50 is 1 to 10 µM in the assay with DoHH2 and over 10 µM in the assay on Ramos (Homo sapiens, Ramos, 48 hrs).
With `CCN(CC)CCOc1ccc(Nc2cc3c(cn2)cc(-c2ccccc2)c(=O)n3C2CCN(C)C2)nc1` (stereo not drawn) [Compound 58, 7-((5-(2-(diethylamino)ethoxy)pyridin-2-yl)amino)-1-(1-methylpyrrolidin-3-yl)-3-phenyl-1,6-naphthyridin-2(1H)-one], the figures for the half-maximal inhibitory concentration (IC50) at Lyn [1] (Lyn IC50), on BTK and at Src were 0.1 to 1 µM, 1 to 5 µM and 0.1 to 1 µM, respectively. The EC50 in the assay on DoHH2 was 1 to 10 µM; in the assay with Ramos (Homo sapiens, Ramos, 48 h), over 10 µM.
In the case of `CCn1c(=O)c(-c2ccccc2)cc2cnc(Nc3ccncn3)cc21` [Compound 60, 1-Ethyl-3-phenyl-7-(pyrimidin-4-ylamino)-1H-[1,6]naphthyridin-2-one], the concentration for half-maximal inhibition (IC50) was in the range of 1 to 5 µM against Lyn [1], 0.1 to 1 µM against BTK and 0.1 to 1 µM at Src. The concentration giving a half-maximal response (EC50) in the assay on DoHH2 was 1 to 10 µM; with Ramos (Homo sapiens, Ramos, 48 h), over 10 µM.
For the compound `CCn1c(=O)c(-c2ccccc2)cc2cnc(Nc3ccc(OC)nn3)cc21` [Compound 61, 1-Ethyl-7-(6-methoxy-pyridazin-3-ylamino)-3-phenyl-1H-[1,6]naphthyridin-2-one], the figures for the IC50 against Lyn [1], against BTK and at Src were 1 to 5 µM, 1 to 5 µM and 0.1 to 1 µM, respectively. Moreover, the EC50 was under 1 µM in the assay on DoHH2 and 1 to 10 µM in the assay with Ramos (Homo sapiens, Ramos, 48 hrs).
Take `CCn1c(=O)c(-c2ccccc2)cc2cnc(Nc3ccnc(OC)n3)cc21` [Compound 62, 1-Ethyl-7-(2-methoxy-pyrimidin-4-ylamino)-3-phenyl-1H-[1,6]naphthyridin-2-one]: the IC50 against Lyn [1] (Lyn IC50) lay in the range of 1 to 5 µM; at BTK it was 1 to 5 µM; against Src, 0.1 to 1 µM. The 50% effective concentration (EC50) was under 1 µM in the assay on DoHH2 and 1 to 10 µM with Ramos (Homo sapiens, Ramos, 48 h).
For `CN1CCC(n2c(=O)c(-c3c(F)cccc3F)cc3cnc(Nc4ccc(F)cn4)cc32)C1` (stereo not drawn) [Compound 85, 3-(2,6-difluorophenyl)-7-((5-fluoropyridin-2-yl)amino)-1-(1-methylpyrrolidin-3-yl)-1,6-naphthyridin-2(1H)-one], the IC50 at Lyn [1] (Lyn IC50) and against Src was 1 to 5 µM in each case. For the same compound, the EC50 in the assay on DoHH2 is 1 to 10 µM; in the assay with Ramos (Homo sapiens, Ramos, 48 h) it was over 10 µM.
On to `COCCn1c(=O)c(-c2c(F)cccc2F)cc2cnc(Nc3ccc(F)cn3)cc21` [Compound 126, 3-(2,6-difluorophenyl)-7-((5-fluoropyridin-2-yl)amino)-1-(2-methoxyethyl)-1,6-naphthyridin-2(1H)-one], for which the EC50 in the assay with DoHH2 was 1 to 10 µM; with Ramos (Homo sapiens, Ramos, 48 h), over 10 µM. Moreover, the IC50 at Lyn [2] is over 5 µM; against BTK, 0.1 to 1 µM; against Src, 1 to 5 µM.
Regarding `O=c1c(-c2c(F)cccc2F)cc2cnc(Nc3ccc(F)cn3)cc2n1[C@@H]1CCNC1` [Compound 151, (R)-3-(2,6-difluorophenyl)-7-((5-fluoropyridin-2-yl)amino)-1-(pyrrolidin-3-yl)-1,6-naphthyridin-2(1H)-one], the half-inhibitory concentration (IC50) on Lyn [1] and against Src was 0.1 to 1 µM in each case. The 50% effective concentration (EC50) in the assay on DoHH2 was 1 to 10 µM; in the assay on Ramos (Homo sapiens, Ramos, 48 hrs), over 10 µM.
